Test: Waters SunFire C18, 150 × 2.1 mm, 3.5 µm, 25 °C, 0.25 mL/min, estimated dead time 1.3 min; A: water + 0.1% formic acid; B: methanol; gradient (min/%B) 0/5 30/100
Conditions: stereoisomer not certain

C=CC(CO)C1CC[N+]2(C)CCc3c([nH]c4ccccc34)C2C1 (stereo not given)
LC retention time: 14.2 min

CCC1(O)CC23CC4N(CCC45C(=C2C(=O)OC)Nc2ccccc25)C13 (stereo not given)
LC retention time: 14.8 min

CC1OCC2C3CC4(O)N(CCC45c4ccccc4N(C(=O)CO)C25)CC13 (stereo not given)
LC retention time: 11.8 min

CC=C1CN(C)C2Cc3c([nH]c4ccccc34)C(=O)CC1C2C(=O)OC (stereo not given)
LC retention time: 15.3 min

c1ccc2c(c1)NC13CCC4(CCCN5CCC21C54)CC3 (stereo not given)
LC retention time: 19.5 min

COC(=O)C1C2CC3c4[nH]c5cc(OC)ccc5c4CCN3CC2CC(O)C1OC (stereo not given)
LC retention time: 16.1 min

COc1ccc2[nH]c3c(c2c1)CCN1CC2CC3C1C(C(C)O)C2 (stereo not given)
LC retention time: 14.9 min

CC=C1CN2C(C3=CC4C5CC6N(CCC67c6ccccc6N(C3=O)C47)CC5=CCO)CC34c5ccccc5N5C(=O)CC=C(C1CC23)C54 (stereo not given)
LC retention time: 15.3 min

CC=C1C[n+]2ccc3c([nH]c4ccccc43)c2CC1C1=CN2c3ccccc3C34CCN5CC(=CC)C(CC53)C(C1O)C24 (stereo not given)
LC retention time: 15.2 min

CCC1CN(C)CC2(C(=O)OC)Cc3c([nH]c4ccccc34)C(=O)CC12 (stereo not given)
LC retention time: 15 min

CCC12C=CCN3CCc4c(n(c5ccccc45)C(O)(C(=O)OC)C1)C32 (stereo not given)
LC retention time: 13 min

CCC12C=CCN3CCC4(C(=C(C(=O)OC)C1)Nc1cc(O)c(C5C=CC6(CC)CC(C(=O)OC)=C7Nc8c(O)cccc8C78CCN5C68)cc14)C32 (stereo not given)
LC retention time: 16.7 min

C=CC1CN2CCc3c([nH]c4ccc(O)cc34)C2CC1CC1c2[nH]c3ccccc3c2CCN1C (stereo not given)
LC retention time: 13.6 min

CC=C1C[n+]2ccc3c([nH]c4ccccc43)c2CC1C(C(=O)OC)C1OCC2C3CC4N(CCC45c4ccccc4N1C25)CC3CC (stereo not given)
LC retention time: 15.8 min

COC(=O)C1CC23C=CC(=O)N2CCC2(C(=O)OC)c4ccccc4N(C(=O)OC)C12CC3 (stereo not given)
LC retention time: 25.1 min

CC=C1CN2C3CC1C(C(=O)OC)C2Cc1c3[nH]c2ccccc12 (stereo not given)
LC retention time: 16.2 min

COC(=O)C1CC23CCCN4C(=O)CC5(c6ccccc6N(C)C15CC2)C43 (stereo not given)
LC retention time: 15.1 min

CCC1CN2CCc3c([nH]c4cc(OC)c(OC)cc34)C2CC1CCO (stereo not given)
LC retention time: 16.6 min

CCC12CCCN3CCc4c(n(c5ccccc45)C(c4ccc5c(c4)C46CCN7CCCC8(CCC4(C(C(=O)OC)C8)N5C)C76)C1)C32 (stereo not given)
LC retention time: 18.7 min

CC=C1CN2CCC34c5ccccc5N5C(C(=O)OC)C1CC2C53OC(=O)c1c4ccc(O)c1O (stereo not given)
LC retention time: 19.6 min

CCC1CN2CCc3c([nH]c4ccccc34)C2CC1CC1NCCc2c1[nH]c1ccccc21 (stereo not given)
LC retention time: 16.6 min

CCC1CC2CC3c4[nH]c5cc(OC)ccc5c4CCN(C2)C13 (stereo not given)
LC retention time: 18.6 min

CC=C1CN2CCC34c5cc(-c6cc7c(cc6OC)C68CCN9CC(=CC)C(CCC96N7C)C8C(=O)OC)c(OC)cc5N(C)C3C2CC1C4C(=O)OC (stereo not given)
LC retention time: 16.9 min

COC(=O)C1CC23CCCN4CCC5(c6cc(Cc7ccc8c(c7)C79CCN%10CCCC%11(CCC7(C(C(=O)OC)C%11)N8C)C%109)ccc6N(C)C15CC2)C43 (stereo not given)
LC retention time: 19.5 min

CC=C1CN(C)C2Cc3c([nH]c4ccccc34)C(c3cc4[nH]c5c(c4cc3OC)CCN3CC4CC(CC)C3C5(C(=O)OC)C4)CC1C2C(=O)OC (stereo not given)
LC retention time: 17.5 min

CC=C1CN2CCC34CC5C6CC7c8c(c9ccccc9n8C)CC(C6COC5(C)OC35C2CC1C(C(=O)OC)N5c1ccccc14)N7C (stereo not given)
LC retention time: 17.4 min

CCC1CN2CCC34c5ccccc5NC3C(CO)C1CC24 (stereo not given)
LC retention time: 10.4 min

C=CC1CN2CCc3c([nH]c4cc(O)ccc34)C2CC1CC1c2[nH]c3ccccc3c2CCN1C (stereo not given)
LC retention time: 13.3 min

C=Cc1cncc2c(=O)n3c(cc12)-c1[nH]c2ccccc2c1CC3
LC retention time: 18.3 min

O=C1CC=C2C3CC4N(CCC45c4ccccc4N1C25)CC3=CCO (stereo not given)
LC retention time: 12.1 min

CCC1=CC2CN3CCc4c([nH]c5ccccc45)C(C(=O)OC)(C2)C13 (stereo not given)
LC retention time: 16.1 min

COC(=O)C1CC23CCCN4CCC5(c6ccccc6N(C)C15CC2)C43 (stereo not given)
LC retention time: 17.2 min

CCC1CN2CCC34C5=C(CC6(CC7CC(CC)N8CCC9(C6=Nc6ccccc69)C78)CN5c5ccccc53)C1CC24 (stereo not given)
LC retention time: 16.3 min

CC=C1CN2C3CC45c6ccccc6N(C)C4C2CC1C3C5OC(=O)c1cc(OC)c(OC)c(OC)c1 (stereo not given)
LC retention time: 22.6 min

CN1CCC23C(=O)CC4C(=CCOC5CC(=O)N(c6c(O)cccc62)C3C54)C1 (stereo not given)
LC retention time: 13.4 min

CC=C1CN2CCC34C(=C(C(=O)OC)C1CC23)Nc1ccccc14 (stereo not given)
LC retention time: 11.1 min

COC(=O)C1(COC(=O)C=Cc2ccccc2)C2CC(N(C)CC23OC3C)C23Nc4ccccc4C21CC(=O)O3 (stereo not given)
LC retention time: 29.9 min

O=C1CC2OCC=C3CN4CCC56c7ccccc7N1C5C2C3CC46O (stereo not given)
LC retention time: 13.3 min

Cc1[nH]ccc2c(C)c3nc4ccccc4c3cc12
LC retention time: 21.5 min

CC=C1CN(C)CCC23C(=O)CC1C1COC(OC)C(=O)N(c4ccccc42)C13 (stereo not given)
LC retention time: 16 min

CCC12CCCN(CCc3c([nH]c4ccccc34)CC1)C2 (stereo not given)
LC retention time: 15.1 min

CC=C1C[N+]2(C)CCC34c5ccccc5NC32C(O)CC1C4(CO)C(=O)OC (stereo not given)
LC retention time: 13.4 min

COC(=O)C1C(O)CCC2CN3CCc4c([nH]c5ccc(C)cc45)C3CC21 (stereo not given)
LC retention time: 28.8 min

CCC1CN(C)C2Cc3c([nH]c4ccccc34)C(O)(c3cc4c5c([nH]c4cc3OC)C3(C(=O)OC)CC4CC(CC)C3N(CC5)C4)CC1C2C(=O)OC (stereo not given)
LC retention time: 16.3 min

CC=C1CN2CCC3=C([NH2+]c4ccccc43)C2CC1C(Cc1cn2c(c3nc4ccccc4c1-3)CC1C(C(=O)OC)=COC(C)C1C2)C(=O)OC (stereo not given)
LC retention time: 18.2 min

CC=C1C[N+]2(C)CCC34C(=C(C=O)C1CC32)Nc1ccccc14 (stereo not given)
LC retention time: 11.3 min

CCC12C=CCN3CCC4(C(=C(C(=O)OC)C1)Nc1ccccc14)C32 (stereo not given)
LC retention time: 18.2 min

COC(=O)C1=COC(C)C2CN3CCC4(C(=O)Nc5cc(OC)c(OC)cc54)C3CC12 (stereo not given)
LC retention time: 15.8 min

CCC1CN2CCc3c([nH]c4ccccc34)C2CC1CCO (stereo not given)
LC retention time: 14.1 min

CCC12CCCN3CCc4c(n(c5ccccc45)C(O)(C(=O)OC)C1)C32 (stereo not given)
LC retention time: 20 min

CCC1CN(C)C2Cc3c([nH]c4ccccc34)C(c3cc4c5c([nH]c4cc3OC)C3(C(=O)OC)CC4CC(CC)C3N(CC5)C4=O)CC1C2C(=O)OC (stereo not given)
LC retention time: 22.6 min

COc1cc2c(cc1OC)C13CCN4CC5=CCOC6CC(=O)N2C1C6C5CC43 (stereo not given)
LC retention time: 12.9 min

CC=C1CN2CCC34c5cc(O)ccc5N(C)C35OCC4(C(=O)OC)C1CC25 (stereo not given)
LC retention time: 14.3 min

COC(=O)C1=COC(C)C2CN3CCc4c([nH]c5cc(OC)c(OC)cc45)C3CC12 (stereo not given)
LC retention time: 17 min

CC=C1CN2CCC34C(=O)c5cc6c(cc5OC35C2CC1C(C(=O)OC)N5c1ccccc14)NC12CCC3(CC)CCC[N+]1(CCC62O)C3 (stereo not given)
LC retention time: 13.8 min

CCC1CN2CCc3c([nH]c4ccccc34)C2CC1CC1c2[nH]c3ccccc3c2CCN1C (stereo not given)
LC retention time: 14.7 min

CC=C1CN2C3CC1C1(C(=O)OC)C2CC2(c4ccccc4N(C)C32)C1O (stereo not given)
LC retention time: 12 min

CC=C1CN2C3CC1C1(C(=O)OC)C2CC2(c4ccccc4NC32)C1O (stereo not given)
LC retention time: 14.9 min

C=C1c2[nH]c3ccccc3c2CN2CCC1C(=CC)C2 (stereo not given)
LC retention time: 9.26 min

COC(=O)C1=C2Nc3ccccc3C23CCN2CC(C(C)O)C1CC23 (stereo not given)
LC retention time: 10.8 min

Source: the RepoRT retention time repository
